Reference: US11357779B2 (G1 Therapeutics, Inc., priority 2018, dated 2022)
Like-named read-outs stand apart in the source and are kept apart here.

Test: Plasma concentration versus time of Compound I and metabolite Compound III in patients dosed QD or BID with Form B of Compound II plus fulvestrant
Assay type: in vivo, human
Details: human, plasma, oral; for concentration at 8 day / concentration at 15 day: Cohort 7, 150 mg BID of Form B; for concentration at 8 day: Day 8; for concentration at 15 day: Day 15
Source text: Patients were enrolled into 1 of 2 parallel, independently operating, dose-escalation dosing cohorts with Form B of Compound II administered continuously either once daily (QD) or twice daily (BID) with food with fixed-dose fulvestrant (intramuscularly every 14 days for the first three injections and then every 28 days). Pre- or perimenopausal patients also received goserelin for the duration of study treatment. A […] agonist was started at least 28 days before the first dose of Form B, and those patients who were taking another LHRH agonist were switched to goserelin on Day 1. Patients were split into […] cohorts providing once a day (QD) dosing of 200 mg, 300 mg, 400 mg, 500 mg, or 650 mg of Form B, or twice a day (BID) dosing of 100 mg, 150 mg, or 200 mg of Form B. The second dose in BID cohorts was not administered in the evening until at least 12 hours after the initial morning dose of Form B. The dosing cohorts for Form B of Compound II are provided in Table 1.
Blood samples were collected at the following time points relative to the morning dose of Form B at Day 1 and at Day 29: pre-dose (0 hour) and 1, 2, 3, 4, 6, 8, 10, 12 (prior to the evening dose in the BID cohorts), and 24 (prior to the next day's morning dose) hours after dosing. A 5-minute time window was allowed for samples collected between the predose and 3 hours after Form B dosing. A 15-minute window was allowed for samples collected between 4 to 12 hours after Form B dosing. A 1-hour window was allowed for the sample collected 24 hours after Form B dosing. Blood samples for Compound I PK trough levels were collected pre-dose at Day 8, Day 15, and Day 22 prior to the morning administration of Compound I. Plasma concentrations of Compound I and its metabolite, Compound III, were measured using validated methods.
Analysis of plasma concentration versus time data for calculation of standard pharmacokinetic (PK) parameters following oral administration was conducted using Phoenix WinNonlin version 6.3 using actual blood sampling times.

[1] = 150 mg, read-out: Trough Compound I Concentration, Max
[2] = 150 mg, read-out: Trough Compound I Concentration, Median

CC(C)N1CCN(c2ccc(Nc3ncc4cc5n(c4n3)C3(CCCCC3)CNC5=O)nc2)CC1 [Compound I, 2′-((5-(4-isopropylpiperazin-1-yl)pyridin-2-yl)amino)-7′,8′-dihydro-6′H-spiro[cyclohexane-1,9′-pyrazino[1′,2′:1,5]pyrrolo[2,3-d]pyrimidin]-6′-one]
concentration at 0 h (100 mg, Cohort 6, 100 mg BID of Form B, Day 29, 0.0 h, read-out: Compound I Concentration, Median): 4.13 ng/mL | concentration at 0 h (100 mg, Cohort 6, 100 mg BID of Form B, Day 29, 0.0 h, read-out: Compound I Concentration, Min): 1.54 ng/mL | concentration at 1 h (100 mg, Cohort 6, 100 mg BID of Form B, Day 29, 1.0 h, read-out: Compound I Concentration, Max): 15.7 ng/mL | concentration at 1 h (100 mg, Cohort 6, 100 mg BID of Form B, Day 29, 1.0 h, read-out: Compound I Concentration, Mean): 9.25 ng/mL | concentration at 1 h (100 mg, Cohort 6, 100 mg BID of Form B, Day 29, 1.0 h, read-out: Compound I Concentration, Median): 9.34 ng/mL | concentration at 1 h (100 mg, Cohort 6, 100 mg BID of Form B, Day 29, 1.0 h, read-out: Compound I Concentration, Min): 1.79 ng/mL | concentration at 2 h (100 mg, Cohort 6, 100 mg BID of Form B, Day 29, 2.0 h, read-out: Compound I Concentration, Max): 19.6 ng/mL | concentration at 2 h (100 mg, Cohort 6, 100 mg BID of Form B, Day 29, 2.0 h, read-out: Compound I Concentration, Mean): 11 ng/mL | concentration at 2 h (100 mg, Cohort 6, 100 mg BID of Form B, Day 29, 2.0 h, read-out: Compound I Concentration, Median): 11.8 ng/mL | concentration at 2 h (100 mg, Cohort 6, 100 mg BID of Form B, Day 29, 2.0 h, read-out: Compound I Concentration, Min): 2.94 ng/mL | concentration at 3 h (100 mg, Cohort 6, 100 mg BID of Form B, Day 29, 3.0 h, read-out: Compound I Concentration, Max): 20.5 ng/mL | concentration at 3 h (100 mg, Cohort 6, 100 mg BID of Form B, Day 29, 3.0 h, read-out: Compound I Concentration, Mean): 10.5 ng/mL | concentration at 3 h (100 mg, Cohort 6, 100 mg BID of Form B, Day 29, 3.0 h, read-out: Compound I Concentration, Median): 8.31 ng/mL | concentration at 3 h (100 mg, Cohort 6, 100 mg BID of Form B, Day 29, 3.0 h, read-out: Compound I Concentration, Min): 4.4 ng/mL | concentration at 4 h (100 mg, Cohort 6, 100 mg BID of Form B, Day 29, 4.0 h, read-out: Compound I Concentration, Max): 19.8 ng/mL | concentration at 4 h (100 mg, Cohort 6, 100 mg BID of Form B, Day 29, 4.0 h, read-out: Compound I Concentration, Mean): 10.5 ng/mL | concentration at 4 h (100 mg, Cohort 6, 100 mg BID of Form B, Day 29, 4.0 h, read-out: Compound I Concentration, Median): 9.26 ng/mL | concentration at 4 h (100 mg, Cohort 6, 100 mg BID of Form B, Day 29, 4.0 h, read-out: Compound I Concentration, Min): 5.14 ng/mL | concentration at 6 h (100 mg, Cohort 6, 100 mg BID of Form B, Day 29, 6.0 h, read-out: Compound I Concentration, Max): 16.2 ng/mL | concentration at 6 h (100 mg, Cohort 6, 100 mg BID of Form B, Day 29, 6.0 h, read-out: Compound I Concentration, Mean): 8.82 ng/mL | concentration at 6 h (100 mg, Cohort 6, 100 mg BID of Form B, Day 29, 6.0 h, read-out: Compound I Concentration, Median): 8.11 ng/mL | concentration at 6 h (100 mg, Cohort 6, 100 mg BID of Form B, Day 29, 6.0 h, read-out: Compound I Concentration, Min): 4.1 ng/mL | concentration at 8 h (100 mg, Cohort 6, 100 mg BID of Form B, Day 29, 8.0 h, read-out: Compound I Concentration, Max): 13.8 ng/mL | concentration at 8 h (100 mg, Cohort 6, 100 mg BID of Form B, Day 29, 8.0 h, read-out: Compound I Concentration, Mean): 7.45 ng/mL | concentration at 8 h (100 mg, Cohort 6, 100 mg BID of Form B, Day 29, 8.0 h, read-out: Compound I Concentration, Median): 6.57 ng/mL | concentration at 8 h (100 mg, Cohort 6, 100 mg BID of Form B, Day 29, 8.0 h, read-out: Compound I Concentration, Min): 3.61 ng/mL | concentration at 10 h (100 mg, Cohort 6, 100 mg BID of Form B, Day 29, 10.0 h, read-out: Compound I Concentration, Max): 11.4 ng/mL | concentration at 10 h (100 mg, Cohort 6, 100 mg BID of Form B, Day 29, 10.0 h, read-out: Compound I Concentration, Mean): 6.23 ng/mL | concentration at 10 h (100 mg, Cohort 6, 100 mg BID of Form B, Day 29, 10.0 h, read-out: Compound I Concentration, Median): 5.44 ng/mL | concentration at 10 h (100 mg, Cohort 6, 100 mg BID of Form B, Day 29, 10.0 h, read-out: Compound I Concentration, Min): 2.88 ng/mL | concentration at 12 h (100 mg, Cohort 6, 100 mg BID of Form B, Day 29, 12.0 h, read-out: Compound I Concentration, Max): 10.1 ng/mL | concentration at 12 h (100 mg, Cohort 6, 100 mg BID of Form B, Day 29, 12.0 h, read-out: Compound I Concentration, Mean): 7.16 ng/mL | concentration at 12 h (100 mg, Cohort 6, 100 mg BID of Form B, Day 29, 12.0 h, read-out: Compound I Concentration, Median): 8.36 ng/mL | concentration at 12 h (100 mg, Cohort 6, 100 mg BID of Form B, Day 29, 12.0 h, read-out: Compound I Concentration, Min): 2.37 ng/mL | concentration at 0 h (150 mg, 150 mg BID of Form B, Day 1, 0.0 h, Mean, read-out: Compound I Concentration): 0 ng/mL | concentration at 0 h (150 mg, 150 mg BID of Form B, Day 1, 0.0 h, Median, read-out: Compound I Concentration): 0 ng/mL | concentration at 1 h (150 mg, 150 mg BID of Form B, Day 1, 1.0 h, Mean, read-out: Compound I Concentration): 4.63 ng/mL | concentration at 1 h (150 mg, 150 mg BID of Form B, Day 1, 1.0 h, Median, read-out: Compound I Concentration): 5.06 ng/mL | concentration at 2 h (150 mg, 150 mg BID of Form B, Day 1, 2.0 h, Mean, read-out: Compound I Concentration): 11 ng/mL | concentration at 2 h (150 mg, 150 mg BID of Form B, Day 1, 2.0 h, Median, read-out: Compound I Concentration): 11.6 ng/mL | concentration at 3 h (150 mg, 150 mg BID of Form B, Day 1, 3.0 h, Mean, read-out: Compound I Concentration): 14.4 ng/mL | concentration at 3 h (150 mg, 150 mg BID of Form B, Day 1, 3.0 h, Median, read-out: Compound I Concentration): 10.2 ng/mL | concentration at 4 h (150 mg, 150 mg BID of Form B, Day 1, 4.0 h, Mean, read-out: Compound I Concentration): 20.7 ng/mL | concentration at 4 h (150 mg, 150 mg BID of Form B, Day 1, 4.0 h, Median, read-out: Compound I Concentration): 21.5 ng/mL | concentration at 6 h (150 mg, 150 mg BID of Form B, Day 1, 6.0 h, Mean, read-out: Compound I Concentration): 12.2 ng/mL | concentration at 6 h (150 mg, 150 mg BID of Form B, Day 1, 6.0 h, Median, read-out: Compound I Concentration): 10.4 ng/mL | concentration at 8 h (150 mg, 150 mg BID of Form B, Day 1, 8.0 h, Mean, read-out: Compound I Concentration): 10.1 ng/mL | concentration at 8 h (150 mg, 150 mg BID of Form B, Day 1, 8.0 h, Median, read-out: Compound I Concentration): 9.95 ng/mL | concentration at 10 h (150 mg, 150 mg BID of Form B, Day 1, 10.0 h, Mean, read-out: Compound I Concentration): 8.98 ng/mL | concentration at 10 h (150 mg, 150 mg BID of Form B, Day 1, 10.0 h, Median, read-out: Compound I Concentration): 8.98 ng/mL | concentration at 12 h (150 mg, 150 mg BID of Form B, Day 1, 12.0 h, Mean, read-out: Compound I Concentration): 7.73 ng/mL | concentration at 12 h (150 mg, 150 mg BID of Form B, Day 1, 12.0 h, Median, read-out: Compound I Concentration): 7.38 ng/mL | concentration at 8 day [1]: 42.3 ng/mL | concentration at 8 day (150 mg, read-out: Trough Compound I Concentration, Mean): 26.8 ng/mL | concentration at 8 day [2]: 20.6 ng/mL | concentration at 8 day (150 mg, read-out: Trough Compound I Concentration, Min): 17.4 ng/mL | concentration at 15 day [1]: 35.7 ng/mL | concentration at 15 day [2]: 23.3 ng/mL
